Two compounds from ChEMBL document CHEMBL1201862, “PubChem BioAssay data set” (2004) can be followed below.

Molecules are shown by their SMILES. Activity calls are given as the source filed them. A value given as a limit tells only on which side of the number the result lay.

The target of test [1] is T1, Mannose-6-phosphate isomerase (Homo sapiens, UniProt P34949).
T1 sequence (P34949 whole entry): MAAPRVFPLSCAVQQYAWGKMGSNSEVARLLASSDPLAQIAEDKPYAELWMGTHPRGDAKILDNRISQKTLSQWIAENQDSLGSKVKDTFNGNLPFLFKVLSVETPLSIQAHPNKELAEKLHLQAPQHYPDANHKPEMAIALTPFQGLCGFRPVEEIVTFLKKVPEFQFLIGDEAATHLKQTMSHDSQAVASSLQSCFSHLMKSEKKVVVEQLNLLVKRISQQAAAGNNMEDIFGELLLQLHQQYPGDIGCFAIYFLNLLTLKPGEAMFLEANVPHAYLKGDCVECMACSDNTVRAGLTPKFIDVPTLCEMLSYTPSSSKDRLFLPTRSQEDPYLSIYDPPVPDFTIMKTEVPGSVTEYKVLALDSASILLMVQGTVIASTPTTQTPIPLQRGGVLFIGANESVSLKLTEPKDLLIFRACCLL
As to the kind of experiment: inhibitors of human PMI, primary screen, biochemical, fluorescence intensity, coupled assay (AID 1209).

Test [2] is described as follows: Luminescence Cell-Based Dose Confirmation HTS to Identify Activators of 5'UTR Stem-Loop Driven Alpha-Synuclein mRNA Translation in H4 Neuroglioblastoma Cells. [Related pubchem assays: 1829 (Project Summary), 1814 (Primary HTS)]. The format is functional.
For a further test, the system named is H4. Kind of test: Luminescence Cell-Based Dose Response HTS to Identify Activators of 5'UTR Stem-Loop Driven Prion Protein mRNA Translation in H4 Neuroglioblastoma Cells. [Related pubchem assays: 1829 (Project Summary), 1814 (Primary HTS)]. In kind it is functional. Particulars: Homo sapiens.
Test [3] deals with T1, Mannose-6-phosphate isomerase. Kind of test: human PMI inhibitors, high substrate, primary screen, biochemical, fluorescence intensity, high mannose 6-phosphate (AID 1220).
Test [4] in a line: Luminescence Cell-Based Dose Response HTS to Identify Activators of Luciferase Translation or Activity in H4 […] Cells. [Related pubchem assays: 1829 (Project Summary), 1814 (Primary HTS)]. The format is functional.
Another test concerns the target T2, Streptokinase A (Streptococcus pyogenes serotype M1, UniProt P10520).
T2 sequence (P10520 whole entry): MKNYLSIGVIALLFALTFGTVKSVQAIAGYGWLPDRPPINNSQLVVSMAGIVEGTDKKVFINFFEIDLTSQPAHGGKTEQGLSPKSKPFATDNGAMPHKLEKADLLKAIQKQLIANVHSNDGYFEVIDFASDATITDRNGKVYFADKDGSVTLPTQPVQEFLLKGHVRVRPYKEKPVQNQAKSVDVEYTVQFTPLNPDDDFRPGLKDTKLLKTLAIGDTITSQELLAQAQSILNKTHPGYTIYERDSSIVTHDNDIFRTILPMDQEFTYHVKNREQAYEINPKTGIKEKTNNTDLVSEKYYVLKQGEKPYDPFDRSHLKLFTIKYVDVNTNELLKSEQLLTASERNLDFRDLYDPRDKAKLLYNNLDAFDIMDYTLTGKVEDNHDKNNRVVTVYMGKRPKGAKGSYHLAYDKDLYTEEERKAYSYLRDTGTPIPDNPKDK
As to the kind of experiment: Absorbance Microorganism-Based Dose Response Follow up to Identify Inhibitors of Streptokinase Expression. [Related pubchem assays: 1677 (Project Summary), 1915, 1914, 1902 (Retest at Dose), 1900 (Counter Screen), 1662 (Primary HTS)]. In kind it is functional, Streptococcus pyogenes M1 GAS.

Another test deals with Streptococcus. As to the kind of experiment: Streptococcus pyogenes growth inhibition counter-screen, dose response, counter-screen for streptokinase expression inhibitor project, luminescence, BacTiter-Glo, strain UMAA2166 (AID 2477). The format is functional, organism-based.

What is called IC50 is the concentration that gives 50% inhibition. For orientation: EC50 means the concentration at which the effect is half-maximal. As for `c1ccc(-c2cc(N3CCCCCC3)n[nH]2)cc1`, the IC50 in test [1] and in test [3] was > 50 µM (not active) throughout. In addition, the EC50 in test [2] is 5.19 µM (active); in the test with H4, 9.81 µM (active); in test [4], 30.9 µM (active).

As to `COc1ccc(S(=O)(=O)c2ccc(NC(=O)c3ccccc3Cl)cc2C#N)cc1`, the results for the EC50 at Streptokinase A and with Streptococcus were 5.44 µM (active) and 40.5 µM (active), respectively.
